How the values were obtained:
Assay in all cases: relative viability (nuclei count vs DMSO), 5 days (fraction); higher = more cells survive
NCI-H1666 = system: NCI-H1666
How it was run: (§1)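 Lung cancer cell lines in 1536-well plates were dosed by pin tool the day after seeding, either with one drug alone or with a fixed anchor-drug dose plus five library-drug doses (not always all listed) in √10 steps. After 5 days, cells were fixed and their nuclei stained in one step (final 0.05% Triton X-100, 1% formaldehyde, 1 ug/ml Hoechst), then counted on 4× images. Relative viability is the nuclei count in treated wells divided by that in vehicle wells. Values are medians of duplicate plates.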

PC-3 [JPC-3] = system: PC-3 [JPC-3]
How it was run: as §1

NCI-H650 = system: NCI-H650
How it was run: as §1

NCI-H2023 = system: NCI-H2023
How it was run: as §1

NCI-H2170 = system: NCI-H2170
How it was run: as §1

NCI-H441 = system: NCI-H441
How it was run: as §1

NCI-H1755 = system: NCI-H1755
How it was run: as §1

NCI-H23 = system: NCI-H23
How it was run: as §1

NCI-H1395 = system: NCI-H1395
How it was run: as §1

LOU-NH91 = system: LOU-NH91
How it was run: as §1

A-427 = system: A-427
How it was run: as §1

LCLC-97TM1 = system: LCLC-97TM1
How it was run: as §1

LU99A = system: LU99A
How it was run: as §1

NCI-H2126 = system: NCI-H2126
How it was run: as §1

NCI-H1793 = system: NCI-H1793
How it was run: as §1

SK-LU-1 = system: SK-LU-1
How it was run: as §1

NCI-H1915 = system: NCI-H1915
How it was run: as §1

BEN = system: BEN
How it was run: as §1

LXF-289 = system: LXF-289
How it was run: as §1

NCI-H322M = system: NCI-H322M
How it was run: as §1

NCI-H460 = system: NCI-H460
How it was run: as §1

NCI-H1944 = system: NCI-H1944
How it was run: as §1

HARA = system: HARA
How it was run: as §1

## O=C(O)CCCCC(CCSCc1ccccc1)SCc1ccccc1 (centres undefined) [CPI-613] + CC(=O)c1c(C)c2cnc(Nc3ccc(N4CCNCC4)cn3)nc2n(C2CCCC2)c1=O [Palbociclib] (partner 0.5 µM)
NCI-H1666; first compound 5 µM
  relative viability: 0.68
NCI-H1666; first compound 15.81 µM
  relative viability: 0.577
NCI-H1666; first compound 50 µM
  relative viability: 0.574
NCI-H1666; first compound 158.11 µM
  relative viability: 0.469
NCI-H1666; first compound 500 µM
  relative viability: 0.425
PC-3 [JPC-3]; first compound 5 µM
  relative viability: 0.559
PC-3 [JPC-3]; first compound 50 µM
  relative viability: 0.512
PC-3 [JPC-3]; first compound 158.11 µM
  relative viability: 0.265
PC-3 [JPC-3]; first compound 500 µM
  relative viability: 0.263
NCI-H650; first compound 5 µM
  relative viability: 0.337
NCI-H650; first compound 15.81 µM
  relative viability: 0.312
NCI-H650; first compound 50 µM
  relative viability: 0.306
NCI-H650; first compound 158.11 µM
  relative viability: 0.269
NCI-H650; first compound 500 µM
  relative viability: 0.262
NCI-H2023; first compound 5 µM
  relative viability: 0.335
NCI-H2023; first compound 15.81 µM
  relative viability: 0.323
NCI-H2023; first compound 50 µM
  relative viability: 0.35
NCI-H2023; first compound 158.11 µM
  relative viability: 0.0317
NCI-H2023; first compound 500 µM
  relative viability: 0.0063
NCI-H2170; first compound 5 µM
  relative viability: 0.379
NCI-H2170; first compound 15.81 µM
  relative viability: 0.415
NCI-H2170; first compound 50 µM
  relative viability: 0.382
NCI-H2170; first compound 158.11 µM
  relative viability: 0.372
NCI-H2170; first compound 500 µM
  relative viability: 0.219
NCI-H441; first compound 5 µM
  relative viability: 0.222
NCI-H441; first compound 15.81 µM
  relative viability: 0.197
NCI-H441; first compound 50 µM
  relative viability: 0.18
NCI-H441; first compound 158.11 µM
  relative viability: 0.136
NCI-H441; first compound 500 µM
  relative viability: 0.0142
NCI-H1755; first compound 5 µM
  relative viability: 0.513
NCI-H1755; first compound 15.81 µM
  relative viability: 0.432
NCI-H1755; first compound 50 µM
  relative viability: 0.454
NCI-H1755; first compound 158.11 µM
  relative viability: 0.448
NCI-H1755; first compound 500 µM
  relative viability: 0.393
NCI-H23; first compound 5 µM
  relative viability: 0.465
NCI-H23; first compound 15.81 µM
  relative viability: 0.465
NCI-H23; first compound 50 µM
  relative viability: 0.519
NCI-H23; first compound 158.11 µM
  relative viability: 0.104
NCI-H23; first compound 500 µM
  relative viability: 0.0119
NCI-H1395; first compound 5 µM
  relative viability: 0.619
NCI-H1395; first compound 15.81 µM
  relative viability: 0.641
NCI-H1395; first compound 50 µM
  relative viability: 0.601
NCI-H1395; first compound 158.11 µM
  relative viability: 0.57
NCI-H1395; first compound 500 µM
  relative viability: 0.486
LOU-NH91; first compound 5 µM
  relative viability: 0.506
LOU-NH91; first compound 15.81 µM
  relative viability: 0.548
LOU-NH91; first compound 50 µM
  relative viability: 0.522
LOU-NH91; first compound 158.11 µM
  relative viability: 0.402
LOU-NH91; first compound 500 µM
  relative viability: 0.435
A-427; first compound 5 µM
  relative viability: 0.519
A-427; first compound 15.81 µM
  relative viability: 0.477
A-427; first compound 50 µM
  relative viability: 0.486
A-427; first compound 158.11 µM
  relative viability: 0.332
A-427; first compound 500 µM
  relative viability: 0.384
LCLC-97TM1; first compound 5 µM
  relative viability: 0.232
LCLC-97TM1; first compound 15.81 µM
  relative viability: 0.207
LCLC-97TM1; first compound 50 µM
  relative viability: 0.177
LCLC-97TM1; first compound 158.11 µM
  relative viability: 0.124
LCLC-97TM1; first compound 500 µM
  relative viability: 0.0897
LU99A; first compound 5 µM
  relative viability: 0.383
LU99A; first compound 15.81 µM
  relative viability: 0.411
LU99A; first compound 50 µM
  relative viability: 0.372
LU99A; first compound 158.11 µM
  relative viability: 0.193
LU99A; first compound 500 µM
  relative viability: 0.264
NCI-H2126; first compound 5 µM
  relative viability: 0.334
NCI-H2126; first compound 15.81 µM
  relative viability: 0.363
NCI-H2126; first compound 50 µM
  relative viability: 0.338
NCI-H2126; first compound 158.11 µM
  relative viability: 0.213
NCI-H2126; first compound 500 µM
  relative viability: 0.162
NCI-H1793; first compound 5 µM
  relative viability: 0.269
NCI-H1793; first compound 15.81 µM
  relative viability: 0.33
NCI-H1793; first compound 50 µM
  relative viability: 0.258
NCI-H1793; first compound 158.11 µM
  relative viability: 0.112
NCI-H1793; first compound 500 µM
  relative viability: 0.0566
SK-LU-1; first compound 5 µM
  relative viability: 0.422
SK-LU-1; first compound 15.81 µM
  relative viability: 0.392
SK-LU-1; first compound 50 µM
  relative viability: 0.276
SK-LU-1; first compound 158.11 µM
  relative viability: 0.32
SK-LU-1; first compound 500 µM
  relative viability: 0.202
NCI-H1915; first compound 5 µM
  relative viability: 0.5
NCI-H1915; first compound 15.81 µM
  relative viability: 0.494
NCI-H1915; first compound 50 µM
  relative viability: 0.506
NCI-H1915; first compound 158.11 µM
  relative viability: 0.23
NCI-H1915; first compound 500 µM
  relative viability: 0.0812
BEN; first compound 5 µM
  relative viability: 0.457
BEN; first compound 15.81 µM
  relative viability: 0.506
BEN; first compound 50 µM
  relative viability: 0.487
BEN; first compound 158.11 µM
  relative viability: 0.483
BEN; first compound 500 µM
  relative viability: 0.42
LXF-289; first compound 5 µM
  relative viability: 0.561
LXF-289; first compound 15.81 µM
  relative viability: 0.59
LXF-289; first compound 50 µM
  relative viability: 0.558
LXF-289; first compound 158.11 µM
  relative viability: 0.509
LXF-289; first compound 500 µM
  relative viability: 0.393
NCI-H322M; first compound 5 µM
  relative viability: 0.466
NCI-H322M; first compound 15.81 µM
  relative viability: 0.47
NCI-H322M; first compound 50 µM
  relative viability: 0.494
NCI-H322M; first compound 158.11 µM
  relative viability: 0.513
NCI-H322M; first compound 500 µM
  relative viability: 0.288
NCI-H460; first compound 5 µM
  relative viability: 0.197
NCI-H460; first compound 15.81 µM
  relative viability: 0.0984
NCI-H460; first compound 50 µM
  relative viability: 0.0912
NCI-H460; first compound 158.11 µM
  relative viability: 0.0107
NCI-H460; first compound 500 µM
  relative viability: 0.0087
NCI-H1944; first compound 5 µM
  relative viability: 0.331
NCI-H1944; first compound 15.81 µM
  relative viability: 0.312
NCI-H1944; first compound 50 µM
  relative viability: 0.335
NCI-H1944; first compound 158.11 µM
  relative viability: 0.259
NCI-H1944; first compound 500 µM
  relative viability: 0.26
HARA; first compound 5 µM
  relative viability: 0.214
HARA; first compound 15.81 µM
  relative viability: 0.26
HARA; first compound 50 µM
  relative viability: 0.309
HARA; first compound 158.11 µM
  relative viability: 0.198
HARA; first compound 500 µM
  relative viability: 0.105

From the supplement of paper PMC10307832
